{"source": "ChEMBL document CHEMBL1125512", "about": "“Synthesis and antiviral activity of methyl derivatives of 9-[2-(phosphonomethoxy)ethyl]guanine” (J Med Chem, 1992)", "key": {"[1]": {"test_system": "Vero", "test": "In vitro antiherpesvirus activity against vero cells infected with HSV-2(G strain)[plaque reduction assay]", "format": "functional, cell-based", "details": "Chlorocebus sabaeus"}, "[2]": {"test_system": "MRC5", "test": "In vitro antiherpesvirus activity against MRC-5 cells infected with HCMV (AD-169 strain)", "format": "functional, cell-based", "details": "Homo sapiens"}, "[3]": {"test_system": "CCRF-CEM", "test": "In vitro CEM cell growth inhibition by measuring the number of cells after treatment for 72 hours", "format": "functional", "details": "Homo sapiens"}, "[4]": {"test": "Toxicity in vitro against CEM cells by XTT assay", "format": "cell-based", "details": "human, CCRF-CEM (CEM) cells; read-out: TC50 (the source's name)"}, "[5]": {"test_system": "CCRF-CEM", "test": "In vitro anti -HIV activity tested against CEM cells infected with HIV by XTT assay", "format": "functional, cell-based", "details": "Homo sapiens"}, "[6]": {"test": "In vitro cellular toxicity in MRC-5 cells", "format": "cell-based, MRC5", "details": "human, read-out: TC50 (the source's name)"}, "[7]": {"test": "Selectivity Index is the ratio of the TC50 to EC50", "details": "read-out: Selectivity index"}, "[8]": {"test": "In vitro cellular toxicity in vero cells", "format": "cell-based", "details": "read-out: TC50 (the source's name)"}, "[9]": {"test": "In vitro cellular toxicity in WI-38 cells", "format": "cell-based", "details": "human, read-out: TC50 (the source's name)"}}, "data": [{"smiles": "Nc1nc2c(ncn2COCCO)c(=O)[nH]1", "note": "[ACYCLOVIR]", "values": [{"measurement": "IC50", "setting": "[1]", "value": 1.2, "unit": "µM"}]}, {"smiles": "Nc1nc2c(ncn2COC(CO)CO)c(=O)[nH]1", "note": "[GANCICLOVIR]", "values": [{"measurement": "IC50", "setting": "[2]", "value": 4, "unit": "µM"}]}, {"smiles": "C[C@H](Cn1cnc2c(O)nc(N)nc21)OCP(=O)(O)O", "values": [{"measurement": "CC50", "setting": "[3]", "value": 180, "unit": "µM"}, {"measurement": "CC50", "setting": "[4]", "value": "> 500", "unit": "µM"}, {"measurement": "EC50", "setting": "[5]", "value": 1, "unit": "µM"}, {"measurement": "IC50", "setting": "[2]", "value": 16, "unit": "µM"}, {"measurement": "CC50", "setting": "[6]", "value": "> 330", "unit": "µM"}, {"measurement": "selectivity ratio", "setting": "[7]", "value": "> 500"}, {"measurement": "CC50", "setting": "[8]; chlorocebus sabaeus", "value": "> 330", "unit": "µM"}, {"measurement": "IC50", "setting": "[1]", "value": 82, "unit": "µM"}]}, {"smiles": "Cc1nc2c(O)nc(N)nc2n1CCOCP(=O)(O)O", "values": [{"measurement": "CC50", "setting": "[4]", "value": "> 100", "unit": "µM"}, {"measurement": "EC50", "setting": "[5]", "value": "> 100", "unit": "µM"}, {"measurement": "selectivity ratio", "setting": "[7]", "value": "> 1"}, {"measurement": "CC50", "setting": "[8]; chlorocebus sabaeus", "value": "> 330", "unit": "µM"}, {"measurement": "IC50", "setting": "[1]", "value": 172, "unit": "µM"}]}, {"smiles": "Nc1nc2c(ncn2CC(CO)OCP(=O)(O)O)c(=O)[nH]1", "note": "(single isomer, unassigned; form 1)", "values": [{"measurement": "CC50", "setting": "[4]", "value": "> 500", "unit": "µM"}, {"measurement": "EC50", "setting": "[5]", "value": 500, "unit": "µM"}, {"measurement": "IC50", "setting": "[2]", "value": 1.6, "unit": "µM"}, {"measurement": "CC50", "setting": "[6]", "value": "> 310", "unit": "µM"}, {"measurement": "selectivity ratio", "setting": "[7]", "value": "> 1"}, {"measurement": "CC50", "setting": "[8]; chlorocebus sabaeus", "value": "> 310", "unit": "µM"}, {"measurement": "IC50", "setting": "[1]", "value": 99, "unit": "µM"}]}, {"smiles": "CC(OCCn1cnc2c(O)nc(N)nc21)P(=O)(O)O", "note": "(stereo not drawn)", "values": [{"measurement": "CC50", "setting": "[4]", "value": "> 100", "unit": "µM"}, {"measurement": "EC50", "setting": "[5]", "value": "> 100", "unit": "µM"}, {"measurement": "selectivity ratio", "setting": "[7]", "value": "> 1"}, {"measurement": "CC50", "setting": "[8]; chlorocebus sabaeus", "value": "> 330", "unit": "µM"}, {"measurement": "IC50", "setting": "[1]", "value": 158, "unit": "µM"}]}, {"smiles": "CC(C)(OCCn1cnc2c(O)nc(N)nc21)P(=O)(O)O", "values": [{"measurement": "CC50", "setting": "[8]; chlorocebus sabaeus", "value": "> 330", "unit": "µM"}, {"measurement": "IC50", "setting": "[1]", "value": "> 300", "unit": "µM"}]}, {"smiles": "CC(C)(Cn1cnc2c(O)nc(N)nc21)OCP(=O)(O)O", "values": [{"measurement": "CC50", "setting": "[4]", "value": "> 100", "unit": "µM"}, {"measurement": "EC50", "setting": "[5]", "value": 2.6, "unit": "µM"}, {"measurement": "IC50", "setting": "[2]", "value": "> 300", "unit": "µM"}, {"measurement": "CC50", "setting": "[9]", "value": "> 330", "unit": "µM"}, {"measurement": "selectivity ratio", "setting": "[7]", "value": "> 38"}, {"measurement": "IC50", "setting": "[1]", "value": "> 300", "unit": "µM"}]}, {"smiles": "Nc1nc(O)c2ncn(CC(CO)OCP(=O)(O)O)c2n1", "note": "(single isomer, unassigned; form 2)", "values": [{"measurement": "CC50", "setting": "[4]", "value": 350, "unit": "µM"}, {"measurement": "EC50", "setting": "[5]", "value": "> 500", "unit": "µM"}, {"measurement": "IC50", "setting": "[2]", "value": 0.8, "unit": "µM"}, {"measurement": "CC50", "setting": "[6]", "value": "> 310", "unit": "µM"}, {"measurement": "selectivity ratio", "setting": "[7]", "value": "< 1"}, {"measurement": "CC50", "setting": "[8]; chlorocebus sabaeus", "value": "> 310", "unit": "µM"}, {"measurement": "IC50", "setting": "[1]", "value": 97, "unit": "µM"}]}, {"smiles": "Nc1nc2c(ncn2CCOCP(=O)(O)O)c(=O)[nH]1", "note": "[GS-438]", "values": [{"measurement": "CC50", "setting": "[3]", "value": 0.2, "unit": "µM"}, {"measurement": "CC50", "setting": "[4]", "value": 15, "unit": "µM"}, {"measurement": "EC50", "setting": "[5]", "value": 0.2, "unit": "µM"}, {"measurement": "IC50", "setting": "[2]", "value": 0.09, "unit": "µM"}, {"measurement": "CC50", "setting": "[6]", "value": 30, "unit": "µM"}, {"measurement": "selectivity ratio", "setting": "[7]", "value": 75}, {"measurement": "CC50", "setting": "[8]", "value": 17, "unit": "µM"}, {"measurement": "IC50", "setting": "[1]", "value": 1.1, "unit": "µM"}]}, {"smiles": "CC(COCP(=O)(O)O)n1cnc2c(O)nc(N)nc21", "note": "(stereo not drawn)", "values": [{"measurement": "CC50", "setting": "[4]", "value": 250, "unit": "µM"}, {"measurement": "EC50", "setting": "[5]", "value": 5, "unit": "µM"}, {"measurement": "IC50", "setting": "[2]", "value": 1.3, "unit": "µM"}, {"measurement": "CC50", "setting": "[6]", "value": "> 300", "unit": "µM"}, {"measurement": "selectivity ratio", "setting": "[7]", "value": 25}, {"measurement": "CC50", "setting": "[8]; chlorocebus sabaeus", "value": 200, "unit": "µM"}, {"measurement": "IC50", "setting": "[1]", "value": 11, "unit": "µM"}]}, {"smiles": "C[C@@H](Cn1cnc2c(O)nc(N)nc21)OCP(=O)(O)O", "values": [{"measurement": "CC50", "setting": "[3]", "value": 12, "unit": "µM"}, {"measurement": "CC50", "setting": "[4]", "value": 300, "unit": "µM"}, {"measurement": "EC50", "setting": "[5]", "value": 12, "unit": "µM"}, {"measurement": "IC50", "setting": "[2]", "value": 16, "unit": "µM"}, {"measurement": "CC50", "setting": "[6]", "value": "> 330", "unit": "µM"}, {"measurement": "selectivity ratio", "setting": "[7]", "value": 25}, {"measurement": "CC50", "setting": "[8]; chlorocebus sabaeus", "value": "> 330", "unit": "µM"}, {"measurement": "IC50", "setting": "[1]", "value": 43, "unit": "µM"}]}, {"smiles": "Nc1ncnc2c1ncn2CCOCP(=O)(O)O", "note": "[ADEFOVIR]", "values": [{"measurement": "CC50", "setting": "[4]", "value": "> 500", "unit": "µM"}, {"measurement": "EC50", "setting": "[5]", "value": 18, "unit": "µM"}, {"measurement": "selectivity ratio", "setting": "[7]", "value": "> 27"}]}]}
